Laboratory results from patent publication US20250114374A1, “BCL-2 INHIBITORS” (Newave Pharmaceutical Inc., priority 2021, published 2025).
pIC50: −log10 of the molar value.

Tested on: RS4; 11 with G101V mutation
Test: In vitro anti-proliferation assay (ATPlite luminescence) in BCL-2-dependent ALL cell line RS4;11 with G101V mutation
Type: cell-based
Details: Homo sapiens, RS4-11, 72 h; read-out: RS411-G101V IC50
Procedure: Cell antiproliferation was assayed by PerkinElmer ATPlite™ Luminescence Assay System. Briefly, the various test cancer cell lines were plated at a density of about 1×10^4 cells per well in Costar 96-well plates, and were incubated with different concentrations of compounds for about 72 hours in medium supplemented with 10% FBS. One lyophilized substrate solution vial was then reconstituted by adding 5 mL of substrate buffer solution, and was agitated gently until the solution was homogeneous. About 50 μL of mammalian cell lysis solution was added to 100 μL of cell suspension per well of a microplate, and the plate was shaken for about five minutes in an orbital shaker at ˜700 rpm. This procedure was used to lyse the cells and to stabilize the ATP. Next, 50 μL substrate solution was added to the wells and microplate was shaken for five minutes in an orbital shaker at ˜700 rpm. Finally, the luminescence was measured by a PerkinElmer TopCount® Microplate Scintillation Counter. Such assays, carried out with a range of doses of test compounds, allowed the determination of the cellular anti-antiproliferative IC50 of the compounds of the present invention.
The following table lists the IC50 values of another study for certain compounds of the invention.

Q: `CC(C)Oc1ccccc1[C@@H]1CN(CC2CCOCC2)CCN1C1CC2(CCN(c3ccc(C(=O)NS(=O)(=O)c4cc5c(c([N+](=O)[O-])c4)N[C@H](C4CCOCC4)CO5)c(N4c5cc6cc[nH]c6nc5O[C@H]5COCC[C@@H]54)c3)CC2)C1` [Example 176, 4-(2-((R)-2-(2-isopropoxyphenyl)-4-((tetrahydro-2H-pyran-4-yl)methyl)piperazin-1-yl)-7-azaspiro[3.5]nonan-7-yl)-N-(((R)-5-nitro-3-(tetrahydro-2H-pyran-4-yl)-3,4-dihydro-2H-benzo[b][1,4]oxazin-7-yl)sulfonyl)-2-((5aS,9aR)-6,7,9,9a-tetrahydro-1H-pyrano[3,4-b]pyrrolo[3′,2′:5,6]pyrido[3,2-e][1,4]oxazin-5(5aH)-yl)benzamide] was tested. Which pIC50 did it give?
A: Its pIC50 is 7.65.

Q: How did the pIC50 turn out when `CC(C)Oc1ccccc1[C@@H]1CN(Cc2ccc(C(C)(C)C)nc2)CCN1C1CC2(CCN(c3ccc(C(=O)NS(=O)(=O)c4cc5c(c([N+](=O)[O-])c4)N[C@H](C4CCOCC4)CO5)c(N4c5cc6cc[nH]c6nc5O[C@H]5COCC[C@@H]54)c3)CC2)C1` [Example 256, 4-(2-((R)-4-((6-(tert-butyl)pyridin-3-yl)methyl)-2-(2-isopropoxyphenyl)piperazin-1-yl)-7-azaspiro[3.5]nonan-7-yl)-N-(((R)-5-nitro-3-(tetrahydro-2H-pyran-4-yl)-3,4-dihydro-2H-benzo[b][1,4]oxazin-7-yl)sulfonyl)-2-((5aS,9aR)-6,7,9,9a-tetrahydro-1H-pyrano[3,4-b]pyrrolo[3′,2′:5,6]pyrido[3,2-e][1,4]oxazin-5(5aH)-yl)benzamide] was run?
A: The pIC50 was 7.93.

Same assay, conditions: cellular anti-proliferative IC50, about 72 hours, medium with 10% FBS, ATPlite; read-out: RS411-G101V IC50

Q: With `CC(C)Oc1ccccc1[C@@H]1CN(c2cccnc2)CCN1C1CC2(CCN(c3ccc(C(=O)NS(=O)(=O)c4cc5c(c([N+](=O)[O-])c4)N[C@H](C4CCOCC4)CO5)c(N4c5cc6cc[nH]c6nc5O[C@H]5COCC[C@@H]54)c3)CC2)C1` [Example 224, 2-[(3R,8S)-2,5-dioxa-9,15,17-triazatetracyclo[8.7.0.0^{3,8}.0^{12,16}]heptadeca-1(10),11,13,16-tetraen-9-yl]-4-{2-[(2R)-2-(2-isopropoxyphenyl)-4-(pyridin-3-yl)piperazin-1-yl]-7-azaspiro[3.5]nonan-7-yl}-N-[(3R)-5-nitro-3-(oxan-4-yl)-3,4-dihydro-2H-1,4-benzoxazin-7-ylsulfonyl]benzamide] as the molecule, how does the pIC50 read?
A: Its pIC50 is 6.87.

Q: With `COc1nccc(CN2CCN(C3CC4(CCN(c5ccc(C(=O)NS(=O)(=O)c6ccc(NCC7CCC(C)(O)CC7)c([N+](=O)[O-])c6)c(N6c7cc8cc[nH]c8nc7O[C@H]7COCC[C@@H]76)c5)CC4)C3)[C@@H](c3ccccc3OC(C)C)C2)c1OC` (stereo partly drawn) [Example 150, 4-(2-((S)-4-((2,3-dimethoxypyridin-4-yl)methyl)-2-(2-isopropoxyphenyl)piperazin-1-yl)-7-azaspiro[3.5]nonan-7-yl)-N-((4-((((1r,4r)-4-hydroxy-4-methylcyclohexyl)methyl)amino)-3-nitrophenyl)sulfonyl)-2-((5aS,9aR)-6,7,9,9a-tetrahydro-1H-pyrano[3,4-b]pyrrolo[3′,2′:5,6]pyrido[3,2-e][1,4]oxazin-5(5aH)-yl)benzamide] as the molecule, how does the pIC50 read?
A: The pIC50 was 7.85.

Q: `Cc1ccccc1[C@@H]1CN(Cc2ccc(N3CCOC[C@H]3C)c(F)c2)CCN1C1CC2(CCN(c3ccc(C(=O)NS(=O)(=O)c4ccc(NC[C@H]5CC[C@](C)(O)CC5)c([N+](=O)[O-])c4)c(N4c5cc6cc[nH]c6nc5O[C@H]5COCC[C@@H]54)c3)CC2)C1` [Example 155, 2-[(3R,8S)-2,5-dioxa-9,15,17-triazatetracyclo[8.7.0.0^{3,8}.0^{12,16}]heptadeca-1(10),11,13,16-tetraen-9-yl]-4-{2-[(2R)-4-({3-fluoro-4-[(3R)-3-methylmorpholin-4-yl]phenyl}methyl)-2-(2-methylphenyl)piperazin-1-yl]-7-azaspiro[3.5]nonan-7-yl}-N-[3-nitro-4-({[(1r,4r)-4-hydroxy-4-methylcyclohexyl]methyl}amino)benzenesulfonyl]benzamide] was tested. Which pIC50 did it give?
A: The pIC50 was 7.04.

Q: `Cc1ccccc1[C@@H]1CN(Cc2cnc3c(c2)OCCO3)CCN1C1CC2(CCN(c3ccc(C(=O)NS(=O)(=O)c4ccc(NCC5CCC(C)(O)CC5)c([N+](=O)[O-])c4)c(N4c5cc6cc[nH]c6nc5O[C@H]5COCC[C@@H]54)c3)CC2)C1` (stereo partly drawn) [Example 125, 2-[(3R,8S)-2,5-dioxa-9,15,17-triazatetracyclo[8.7.0.0^{3,8}.0^{12,16}]heptadeca-1(10),11,13,16-tetraen-9-yl]-4-{2-[(2R)-4-{2H,3H-[1,4]dioxino[2,3-b]pyridin-7-ylmethyl}-2-(2-methylphenyl)piperazin-1-yl]-7-azaspiro[3.5]nonan-7-yl}-N-[3-nitro-4-({[(1r,4r)-4-hydroxy-4-methylcyclohexyl]methyl}amino)benzenesulfonyl]benzamide] was tested. Which pIC50 did it give?
A: Its pIC50 is 7.86.

Q: `CC(C)Oc1ccccc1[C@@H]1CN(C2CCC(C)(C)CC2)CCN1C1CC2(CCN(c3ccc(C(=O)NS(=O)(=O)c4cc5c(c([N+](=O)[O-])c4)N[C@H](C4CCOCC4)CO5)c(N4c5cc6cc[nH]c6nc5O[C@H]5COCC[C@@H]54)c3)CC2)C1` (stereo partly drawn) [Example 226, 4-{2-[(2R)-4-(4,4-dimethylcyclohexyl)-2-(2-isopropoxyphenyl)piperazin-1-yl]-7-azaspiro[3.5]nonan-7-yl}-2-[(3R,8S)-2,5-dioxa-9,15,17-triazatetracyclo[8.7.0.0^{3,8}.0^{12,16}]heptadeca-1(10),11,13,16-tetraen-9-yl]-N-[(3R)-5-nitro-3-(oxan-4-yl)-3,4-dihydro-2H-1,4-benzoxazin-7-ylsulfonyl]benzamide] was tested. Which pIC50 did it give?
A: Its pIC50 is 7.20.

Q: With `COc1c(CN2CCN(C3CC4(CCN(c5ccc(C(=O)NS(=O)(=O)c6ccc(NCC7CCC(C)(O)CC7)c([N+](=O)[O-])c6)c(N6c7cc8cc[nH]c8nc7O[C@H]7COCC[C@@H]76)c5)CC4)C3)[C@@H](c3ccccc3OC(C)C)C2)ccnc1N1CCOCC1` (stereo partly drawn) [Example 151, N-((4-((((1r,4r)-4-hydroxy-4-methylcyclohexyl)methyl)amino)-3-nitrophenyl)sulfonyl)-4-(2-((S)-2-(2-isopropoxyphenyl)-4-((3-methoxy-2-morpholinopyridin-4-yl)methyl)piperazin-1-yl)-7-azaspiro[3.5]nonan-7-yl)-2-((5aS,9aR)-6,7,9,9a-tetrahydro-1H-pyrano[3,4-b]pyrrolo[3′,2′:5,6]pyrido[3,2-e][1,4]oxazin-5(5aH)-yl)benzamide] as the molecule, how does the pIC50 read?
A: The pIC50 was 7.70.

Q: How did the pIC50 turn out when `COc1cc(CN2CCN(C3CC4(CCN(c5ccc(C(=O)NS(=O)(=O)c6ccc(NCC7CCC(C)(O)CC7)c([N+](=O)[O-])c6)c(N6c7cc8cc[nH]c8nc7O[C@H]7COCC[C@@H]76)c5)CC4)C3)[C@@H](c3ccccc3OC(C)C)C2)cnc1N1CCOC[C@@H]1C` (stereo partly drawn) [Example 126, N-((4-((((1r,4r)-4-hydroxy-4-methylcyclohexyl)methyl)amino)-3-nitrophenyl)sulfonyl)-4-(2-((S)-2-(2-isopropoxyphenyl)-4-((5-methoxy-6-((S)-3-methylmorpholino)pyridin-3-yl)methyl)piperazin-1-yl)-7-azaspiro[3.5]nonan-7-yl)-2-((5aS,9aR)-6,7,9,9a-tetrahydro-1H-pyrano[3,4-b]pyrrolo[3′,2′:5,6]pyrido[3,2-e][1,4]oxazin-5(5aH)-yl)benzamide] was run?
A: Its pIC50 is 7.93.

Q: With `CC(C)Oc1ccccc1[C@@H]1CN(c2ccccc2)CCN1C1CC2(CCN(c3ccc(C(=O)NS(=O)(=O)c4cc5c(c([N+](=O)[O-])c4)N[C@H](C4CCOCC4)CO5)c(N4c5cc6cc[nH]c6nc5O[C@H]5COCC[C@@H]54)c3)CC2)C1` [Example 222, 2-[(3R,8S)-2,5-dioxa-9,15,17-triazatetracyclo[8.7.0.0^{3,8}.0^{12,16}]heptadeca-1(10),11,13,16-tetraen-9-yl]-4-{2-[(2R)-2-(2-isopropoxyphenyl)-4-phenylpiperazin-1-yl]-7-azaspiro[3.5]nonan-7-yl}-N-[(3R)-5-nitro-3-(oxan-4-yl)-3,4-dihydro-2H-1,4-benzoxazin-7-ylsulfonyl]benzamide] as the molecule, how does the pIC50 read?
A: The pIC50 was 6.62.

Q: With `CC(C)Oc1ccccc1[C@@H]1CN(Cc2ccc(F)c(F)c2)CCN1C1CC2(CCN(c3ccc(C(=O)NS(=O)(=O)c4cc5c(c([N+](=O)[O-])c4)N[C@H](C4CCOCC4)CO5)c(N4c5cc6cc[nH]c6nc5O[C@H]5CCOC[C@@H]54)c3)CC2)C1` [Example 240, 4-{2-[(2R)-4-[(3,4-difluorophenyl)methyl]-2-(2-isopropoxyphenyl)piperazin-1-yl]-7-azaspiro[3.5]nonan-7-yl}-2-[(3S,8S)-5,9-dioxa-2,11,13-triazatetracyclo[8.7.0.0^{3,8}.0^{12,16}]heptadeca-1(10),11,14,16-tetraen-2-yl]-N-[(3R)-5-nitro-3-(oxan-4-yl)-3,4-dihydro-2H-1,4-benzoxazin-7-ylsulfonyl]benzamide] as the molecule, how does the pIC50 read?
A: Its pIC50 is 8.16.

Q: With `COc1cc(CN2CCN(C3CC4(CCN(c5ccc(C(=O)NS(=O)(=O)c6cc7c(c([N+](=O)[O-])c6)N[C@H](C6CCOCC6)CO7)c(N6c7cc8cc[nH]c8nc7O[C@H]7COCC[C@@H]76)c5)CC4)C3)[C@H](c3ccccc3C(C)C)C2)cnc1N1CCOC[C@@H]1C` [Example 172, 2-[(3R,8S)-2,5-dioxa-9,15,17-triazatetracyclo[8.7.0.0^{3,8}.0^{12,16}]heptadeca-1(10),11,13,16-tetraen-9-yl]-4-{2-[(2R)-2-(2-isopropylphenyl)-4-({5-methoxy-6-[(3S)-3-methylmorpholin-4-yl]pyridin-3-yl}methyl)piperazin-1-yl]-7-azaspiro[3.5]nonan-7-yl}-N-[(3R)-5-nitro-3-(oxan-4-yl)-3,4-dihydro-2H-1,4-benzoxazin-7-ylsulfonyl]benzamide] as the molecule, how does the pIC50 read?
A: The pIC50 was 8.85.
